In ChEMBL document CHEMBL6109084 (Eur J Med Chem, 2025):
Activity calls are given as the source filed them. No cut-off for these calls is given here.

Experiments:
[1] = molecular target: Coagulation factor XI (Homo sapiens, UniProt P03951); experiment: Inhibition of human FXIa using p-Glu-Pro-Arg-pNA.HCl as substrate incubated for 30 mins followed by substrate addition and measured after 60 mins by microplate reader analysis
[2] = test system: Plasma; experiment: Anticoagulant activity in citrated human plasma assessed as prolongation of activated partial thromboplastin time at 1 uM incubated for 3 mins by aPTT reagent based automated coagulometric analysis relative to control; assay type: functional; details: 0.05 h
[3] = test system: Plasma; experiment: Anticoagulant activity in citrated human plasma assessed as prolongation of activated partial thromboplastin time incubated for 3 mins by aPTT reagent based automated coagulometric analysis; assay type: functional
[4] = molecular target: Prothrombin (Homo sapiens, UniProt P00734); experiment: Inhibition of thrombin (unknown origin) using H-D-Phe-Pip-Arg-pNA.2HCl as substrate incubated for 30 mins followed by substrate addition and measured after 60 mins by microplate reader analysis
[5] = molecular target: Coagulation factor X (Homo sapiens, UniProt P00742); experiment: Inhibition of FXa (unknown origin) using Z-D-Arg-Gly-Arg-pNA.2HCl as substrate incubated for 30 mins followed by substrate addition and measured after 60 mins by microplate reader analysis
[6] = molecular target: Trypsin (Homo sapiens, UniProt P07477+P07478+P35030); experiment: Inhibition of trypsin (unknown origin) using Bz-Ile-Glu(gamma-OR)-Gly-Arg-pNA.HCl as substrate incubated for 30 mins followed by substrate addition and measured after 60 mins by microplate reader analysis; assay type: protein assay
[7] = molecular target: Tissue-type plasminogen activator (Homo sapiens, UniProt P00750); experiment: Inhibition of tPA (unknown origin) using H-D-Ile-Pro-Arg-pNA-2HCl as substrate incubated for 30 mins followed by substrate addition and measured after 60 mins by microplate reader analysis
[8] = Cytotoxicity against human AC16 [Human hybrid] cells assessed as reduction in cell viability at 1 to 50 uM incubated for 24 hrs by MTT assay; assay type: toxicity, cell-based; details: dose 1-50 µM
[9] = test system: HK-2; experiment: Cytotoxicity against human HK-2 cells assessed as reduction in cell viability at 1 to 50 uM incubated for 24 hrs by MTT assay; assay type: toxicity, cell-based; details: hk-2, 24 h, dose 1-50 µM
[10] = test system: Mus musculus; experiment: Antithrombotic activity in FeCl3-induced carotid arterial thrombosis C57BL/6J mouse model assessed as increase in blood flow velocity at 10 mg/kg, po measured after 0.5 to 4 hrs; assay type: functional, organism-based; details: time 0.5-4 hrs
[11] = test system: Mus musculus; experiment: Antithrombotic activity in po dosed FeCl3-induced carotid arterial thrombosis C57BL/6J mouse model assessed as increase in mean blood flow velocity measured after 0.5 hrs; assay type: functional, organism-based; details: dose 5-30 mg/kg
[12] = test system: Mus musculus; experiment: Antithrombotic activity in FeCl3-induced carotid arterial thrombosis C57BL/6J mouse model assessed as increase in peak velocity at 10 mg/kg, po measured after 2 to 4 hrs; assay type: functional, organism-based; details: time 2-4 hrs
[13] = test system: Mus musculus; experiment: Antithrombotic activity in FeCl3-induced carotid arterial thrombosis C57BL/6J mouse model assessed as increase in blood flow velocity at 10 mg/kg, po measured after 2 to 4 hrs; assay type: functional, organism-based; details: time 2-4 hrs
[14] = test system: Oryctolagus cuniculus; experiment: Antithrombotic activity in FeCl3-induced carotid arterial thrombosis male New Zealand white rabbits model assessed as reduction in wet thrombus weight at 6 mg/kg, iv preincubated for 30 mins followed by FeCl3 application for 5 mins and measured after 30 mins relative to control; assay type: functional, organism-based; details: time 65.0 min
[15] = test system: Oryctolagus cuniculus; experiment: Antithrombotic activity in FeCl3-induced carotid arterial thrombosis male New Zealand white rabbits model assessed as reduction in wet thrombus weight at 2 mg/kg, iv preincubated for 30 mins followed by FeCl3 application for 5 mins and measured after 30 mins relative to control; assay type: functional; design: scale not given: the % may be the effect or the level left; details: time 65 min, 1.083 h
[16] = Toxicity in male New Zealand white rabbit assessed as prolongation of bleeding time at 2 to 6 mg/kg, iv by ear bleeding assay; assay type: organism-based, Oryctolagus cuniculus; details: in vivo, dose 2-6 mg/kg
[17] = Acute toxicity in C57BL/6J mouse assessed as anaphylaxis response at 60 to 100 mg/kg, po administered as single dose for 14 days; assay type: organism-based; details: in vivo, 336 h, dose 60-100 mg/kg, time 14 day
[18] = Acute toxicity in C57BL/6J mouse assessed as allergic reactions at 60 to 100 mg/kg, po administered as single dose for 14 days; assay type: organism-based; details: in vivo, 336 h, dose 60-100 mg/kg, time 14 day
[19] = Acute toxicity in C57BL/6J mouse assessed as weight loss at 60 to 100 mg/kg, po administered as single dose for 14 days; assay type: organism-based; details: in vivo, 336 h, dose 60-100 mg/kg, time 14 day
[20] = Acute toxicity in C57BL/6J mouse assessed as pathological changes in heart at 60 to 100 mg/kg, po administered as single dose for 14 days by H and E staining based analysis; assay type: organism-based; details: in vivo, 336 h, dose 60-100 mg/kg, time 14 day
[21] = Acute toxicity in C57BL/6J mouse assessed as pathological changes in lung at 60 to 100 mg/kg, po administered as single dose for 14 days by H and E staining based analysis; assay type: organism-based; details: in vivo, 336 h, dose 60-100 mg/kg, time 14 day
[22] = Acute toxicity in C57BL/6J mouse assessed as pathological changes in spleen at 60 to 100 mg/kg, po administered as single dose for 14 days by H and E staining based analysis; assay type: organism-based; details: in vivo, 336 h, dose 60-100 mg/kg, time 14 day
[23] = Acute toxicity in C57BL/6J mouse assessed as pathological changes in kidney at 60 to 100 mg/kg, po administered as single dose for 14 days by H and E staining based analysis; assay type: organism-based; details: in vivo, 336 h, dose 60-100 mg/kg, time 14 day
[24] = test system: Oryctolagus cuniculus; experiment: Antithrombotic activity in FeCl3-induced carotid arterial thrombosis male New Zealand white rabbits model assessed as reduction in dry thrombus weight at 6 mg/kg, iv preincubated for 30 mins followed by FeCl3 application for 5 and measured after 45 mins relative to control; assay type: functional, organism-based; details: time 80.0 min
[25] = Selectivity index, ratio of IC50 for inhibition of trypsin (unknown origin) using Bz-Ile-Glu(gamma-OR)-Gly-Arg-pNA.HCl as substrate to IC50 for inhibition of human FXIa using p-Glu-Pro-Arg-pNA.HCl as substrate
[26] = Selectivity index, ratio of IC50 for inhibition of chymotrypsin (unknown origin) using N-Suc-Ala-Ala-Pro-Phe-pNA as substrate to IC50 for inhibition of human FXIa using p-Glu-Pro-Arg-pNA.HCl as substrate
[27] = test system: Mus musculus; experiment: In vivo inhibition of FXIa in FeCl3-induced carotid arterial thrombosis C57BL/6J mouse model assessed as decrease in FXIa level in plasma at 5 to 30 mg/kg, po measured after 0.5 hrs by ELISA; assay type: functional, organism-based; details: dose 5-30 mg/kg
[28] = Acute toxicity in C57BL/6J mouse assessed as effect on lung weight at 60 to 100 mg/kg, po measured after 24 hrs; assay type: organism-based; details: in vivo, dose 60-100 mg/kg
[29] = Acute toxicity in C57BL/6J mouse assessed as effect on serum aspartate aminotransferase level at 60 to 100 mg/kg, po measured after 24 hrs; assay type: organism-based; details: in vivo, dose 60-100 mg/kg
[30] = Acute toxicity in C57BL/6J mouse assessed as effect on serum alanine transaminase level at 60 to 100 mg/kg, po measured after 24 hrs; assay type: organism-based; details: in vivo, dose 60-100 mg/kg

Chain of Tissue-type plasminogen activator (P00750 whole entry): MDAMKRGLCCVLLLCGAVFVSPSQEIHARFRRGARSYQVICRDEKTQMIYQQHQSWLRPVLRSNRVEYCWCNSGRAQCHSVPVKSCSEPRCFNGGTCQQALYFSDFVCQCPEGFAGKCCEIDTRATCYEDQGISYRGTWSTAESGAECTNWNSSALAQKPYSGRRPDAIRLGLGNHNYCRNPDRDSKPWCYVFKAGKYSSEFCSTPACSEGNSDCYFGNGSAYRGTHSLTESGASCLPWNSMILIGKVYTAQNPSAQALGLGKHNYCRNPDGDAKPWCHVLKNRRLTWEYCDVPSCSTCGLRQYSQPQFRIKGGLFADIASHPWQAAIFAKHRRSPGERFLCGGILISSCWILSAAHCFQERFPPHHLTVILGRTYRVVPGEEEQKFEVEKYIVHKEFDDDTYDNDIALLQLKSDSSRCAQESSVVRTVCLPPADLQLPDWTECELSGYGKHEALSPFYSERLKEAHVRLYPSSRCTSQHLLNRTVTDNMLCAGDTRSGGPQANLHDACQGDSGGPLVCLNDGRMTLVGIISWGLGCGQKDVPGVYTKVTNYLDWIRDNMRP
Chain of Coagulation factor X (P00742 41-179 limits assumed): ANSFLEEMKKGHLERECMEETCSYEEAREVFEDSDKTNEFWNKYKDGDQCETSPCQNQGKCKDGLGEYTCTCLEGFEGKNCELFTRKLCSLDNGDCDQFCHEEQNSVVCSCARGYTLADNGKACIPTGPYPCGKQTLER
Chain of Coagulation factor X (P00742 235-488 limits assumed): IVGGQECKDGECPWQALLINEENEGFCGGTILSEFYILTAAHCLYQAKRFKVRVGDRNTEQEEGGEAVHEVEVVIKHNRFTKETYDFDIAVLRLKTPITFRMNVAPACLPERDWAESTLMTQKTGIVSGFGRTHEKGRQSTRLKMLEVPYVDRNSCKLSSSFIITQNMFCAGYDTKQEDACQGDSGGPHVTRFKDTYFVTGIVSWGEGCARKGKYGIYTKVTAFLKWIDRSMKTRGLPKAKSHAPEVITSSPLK
Chain of Coagulation factor XI (P03951 19-387 limits assumed): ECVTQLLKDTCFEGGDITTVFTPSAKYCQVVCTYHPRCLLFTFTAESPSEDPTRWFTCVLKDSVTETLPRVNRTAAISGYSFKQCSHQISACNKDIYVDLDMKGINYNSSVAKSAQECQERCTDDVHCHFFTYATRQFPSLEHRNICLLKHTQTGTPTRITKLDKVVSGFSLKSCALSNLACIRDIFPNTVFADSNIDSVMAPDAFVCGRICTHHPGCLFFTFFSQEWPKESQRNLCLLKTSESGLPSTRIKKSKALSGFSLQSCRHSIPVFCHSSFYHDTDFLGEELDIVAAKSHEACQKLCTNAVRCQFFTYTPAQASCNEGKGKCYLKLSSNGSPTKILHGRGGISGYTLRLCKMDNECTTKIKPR
Chain of Coagulation factor XI (P03951 388-625 limits assumed): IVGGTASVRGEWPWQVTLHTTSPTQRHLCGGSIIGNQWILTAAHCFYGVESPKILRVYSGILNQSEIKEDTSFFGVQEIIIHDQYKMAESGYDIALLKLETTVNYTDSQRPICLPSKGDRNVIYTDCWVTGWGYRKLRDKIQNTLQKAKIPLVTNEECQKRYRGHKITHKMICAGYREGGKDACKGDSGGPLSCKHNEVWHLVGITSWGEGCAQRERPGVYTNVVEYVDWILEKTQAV

COc1cn(Cc2cc(-c3ccc(N)nc3F)ccn2)c(=O)cc1-c1cc(Cl)ccc1-n1cnnn1
IC50 [1]: 0.19 nM | Activity [2]: 247.3% | Activity [3]: Dose-dependent-effect | EC1.5 ([3]; 0.05 h): 0.43 µM | IC50 [4]: > 1000 nM | IC50 [5]: > 1000 nM | IC50 [6]: > 1000 nM | IC50 [7]: > 1000 nM | Activity [8]: Non-toxic | Activity [9]: Non-toxic | Activity [10]: Active | Activity [11]: Dose-dependent-effect | Activity [12]: Active; Pronounced Increase Observed Compared To Compound F | Activity [13]: Active; Pronounced Increase Observed Compared To Compound F | Activity [14]: Active; Outperformed Asundexian Reducing Thrombus Weight | Activity [15]: >50% | Activity [16]: Non-toxic | Activity [17]: Non-toxic | Activity [18]: Non-toxic | Activity [19]: Non-toxic | Activity [20]: Non-toxic | Activity [21]: Non-toxic | Activity [22]: Non-toxic | Activity [23]: Non-toxic | Activity [24]: Active | Ratio IC50 [25]: > 1000 | Ratio IC50 [26]: > 1000 | inhibition [27]: Active | Activity [28]: Non-toxic | Activity [29]: Non-toxic | Activity [30]: Non-toxic
